13 compounds from PubChem BioAssay (NCI) can be followed below.

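The compound was tested at five concentrations on cells cultured in 96-well plates, with a 48-hour exposure period. The concentration for full growth arrest is given as TGI.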

Common to all, as to experiment: NCI-60 cell line screen, 48 h
For assay [1], the system named is NCI-H460 lung.
The test system of assay [2] is HS 578T breast.
For assay [3], the system named is PC-3 prostate.
Assay [4] deals with HCT-15 colon.
Assay [5] has as its system OVCAR-3 ovarian.
Assay [6] deals with MCF7 breast.
For assay [7], the system named is MOLT-4 leukemia.
Assay [8] relates to KM12 colon.
Assay [9] concerns 786-0 renal.
In assay [10] the test system is HOP-62 NSCLC.
In assay [11] the test system is M14 melanoma.
The subject of assay [12] is A498 renal.
For assay [13], the system named is OVCAR-4 ovarian.
Assay [14] relates to HOP-92 NSCLC.

`Cc1nc2ccc(C(F)(F)F)cc2nc1NCc1ccc(Cl)c(Cl)c1`: the TGI is greater than 100 µM in assay [1]; 45.5 µM in assay [2]; 25.6 µM in assay [3]; 25.3 µM in assay [4]; 26.3 µM in assay [5]; 22.6 µM in assay [6]. The TGI in [7] was determined as 35.8 µM; in assay [8] it was 30.1 µM; in assay [9] it was 30.3 µM; in assay [10] it was 27.5 µM.

On to `CCN(CC)c1ccc2c(c1)Oc1ccc(N(CC)CC)cc1C21Oc2ccccc2-c2c1c1ccccc1n2CC` (stereo unspecified), for which the TGI in assay [11], in assay [4], in assay [5], in assay [7], in assay [12] and in assay [13] was greater than 100 µM in each case. Further, the TGI is greater than 100 µM in assay [9] and 2.12 µM in assay [14].

As to `C[N+]12C=CC=C1C(N1CCCC1)c1scc(-c3ccccc3)c12` (stereo unspecified), the TGI in assay [2] was 67.5 µM; in assay [3] it was 89.9 µM; in assay [11], greater than 100 µM; in [5], 87.8 µM; in assay [6], 71.7 µM; in assay [7], 64.6 µM. Besides, the TGI was 31.3 µM in assay [8], greater than 100 µM in [12], greater than 100 µM in [9] and greater than 100 µM in assay [10].

Consider `O=C(/C=C/c1ccccc1)Oc1ccc(C(=O)/C=C/c2ccc(Cl)cc2)cc1`, for which the TGI in [1], in assay [3], in [11], in assay [5], in assay [6] and in [7] was greater than 100 µM in each case. Moreover, the TGI in assay [8], in [12], in assay [9] and in [10] was greater than 100 µM throughout.

Regarding `O=c1[nH]nc(Cc2ccccc2)n1C1CCCC1`, the TGI in [1], in assay [2], in assay [3], in assay [11], in assay [4] and in assay [5] was greater than 100 µM in each case. For the same compound, the TGI in assay [6], in assay [7], in assay [8], in assay [12], in assay [13] and in assay [9] was greater than 100 µM each time. Also, in assay [10], the TGI is greater than 100 µM.

For `NNC(=O)c1c(-c2cccnc2)cnc2ccccc12`, the TGI in [1], in [3], in [11], in [4], in assay [5] and in assay [6] was greater than 100 µM each time. Moreover, the TGI in [7], in assay [8], in assay [13], in [9], in assay [14] and in assay [10] was greater than 100 µM each time.

As for `C/C=C/C#CC#C/C=C/C=C/C(O)CCO` (stereo unspecified), the TGI in assay [1], in [11], in assay [4], in [5], in assay [7] and in [8] was greater than 23.1 µM each time. Moreover, the TGI in [13], in assay [9], in assay [14] and in assay [10] was greater than 23.1 µM each time.

For the compound `CCc1c(C)c(C#N)c(=S)n(C2OC(COC(C)=O)C(OC(C)=O)C(OC(C)=O)C2OC(C)=O)c1-c1ccccc1` (stereo unspecified), the TGI in assay [1] is greater than 31.6 µM; in [2], 68.2 µM; in [11], greater than 31.6 µM; in assay [4], greater than 31.6 µM; in assay [5], greater than 31.6 µM; in assay [6], greater than 31.6 µM. The TGI in assay [7], in [8], in [12], in assay [13], in [9] and in assay [14] was greater than 31.6 µM each time. In [10], this compound registered a TGI greater than 31.6 µM.

As for `CN(C)C(=NCc1ccccc1)NC#N`, the TGI in [1], in assay [11], in [4], in [5], in [8] and in [13] was greater than 100 µM throughout. Further, the TGI in assay [9], in assay [14] and in assay [10] was greater than 100 µM each time.

For the compound `COc1ccc(N2C(=O)/C(=C\c3cc(OC)c(OC)c(OC)c3)SC2c2ccccc2)cc1` (stereo unspecified), the TGI in [1], in assay [2], in assay [11], in [4], in [5] and in [6] was greater than 100 µM throughout. Also, the TGI in [7], in assay [8], in assay [12], in assay [13], in assay [9] and in assay [14] was greater than 100 µM each time. Moreover, the TGI in [10] was greater than 100 µM.

For `COc1cc(O)c2c(=O)c(O)c(-c3ccc(O)c(OC)c3)oc2c1`, the TGI in assay [1], in [3], in assay [11], in assay [4], in assay [5] and in assay [6] was greater than 100 µM throughout. Moreover, the TGI in assay [7] is greater than 25 µM; in assay [8] it was greater than 100 µM; in assay [12], greater than 100 µM; in assay [9], greater than 100 µM.

For the compound `NC1CC(=O)c2c1sc(Cl)c2Cl` (stereo unspecified), the TGI in [1], in assay [3], in [11], in [4], in assay [5] and in assay [6] was greater than 100 µM in each case. Also, the TGI in assay [7], in assay [8], in assay [12], in assay [9] and in assay [10] was greater than 100 µM throughout.

For the compound `O=CNCNCCO`, the TGI in assay [1], in assay [2], in assay [11], in assay [4], in assay [5] and in assay [6] was greater than 100 µM in each case. Also, the TGI in assay [7], in assay [12], in assay [13], in assay [9], in assay [14] and in [10] was greater than 100 µM each time.
